Tested on: HR-positive, HER2-negative, advanced breast cancer
Assay: MONALEESA-2: PFS subgroup analysis by 2-gene signature (CDKN2A and E2F3) score
Assay type: in vivo, human
Details: for Events: PFS events, median cut-off, both arms plus letrozole; for HR Across ARMCD: PFS, ribociclib arm vs PBO arm, both plus letrozole
Experimental: The patient population consisted of postmenopausal women with HR-positive, HER2-negative, advanced breast cancer, who had previously received no prior therapy for their advanced breast cancer.
Arm A: Ribociclib (600 mg once daily, days 1-21 of a 28-day cycle)+letrozole (2.5 mg once daily, days 1-28 of a 28-day cycle).
Arm B: Placebo (once daily, days 1-21 of a 28-day cycle)+letrozole (2.5 mg once daily days 1-28 of a 28-day cycle continuously).
PFS was defined as the time from the date of randomization to the date of first documented disease progression or death due to any cause. Discontinuation for non-RECIST progression was not counted as a PFS event. If a patient started other anti-neoplastic therapy or had two or more missing tumour assessments, PFS was censored at the last adequate tumour assessment, regardless of subsequent events.
A Cox Proportional Hazards model was fitted with treatment, liver/lung metastasis which is the study stratification factor, effects of the 16 genes, including CCNA2, CCND1, CCND2, CCND3, CCNE1, CDK2, CDK4, CDK6, CDKN1A, CDKN2A, CDKN2B, CDKN2C, E2F1, E2F3, RB1, and TFDP1, and gene by treatment interactions. […] A set of genes (CDKN2A and E2F3) with significant gene by treatment interactions in the model were identified through backward model selection. Signature scores of all samples were computed as the weighted sum of the gene expression values, where weights were the regression coefficients of respective gene by treatment interactions in the Cox Proportional Hazards model. Patients were classified into high and low subgroups using median signature score as the cut-off. Median PFS and hazard ratio together with 95% confidence intervals were computed for each patient subgroup.
Result: Using backward model selection, a 2-gene signature (CDKN2A and E2F3) was derived. FIG. 1Q and table 4 are subgroup analysis results, high- and low-gene signature expression groups are defined by median signature score as cut-off.

## Ribociclib
High 2-gene signature (CDKN2A and E2F3) score
  Events: 30
Low 2-gene signature (CDKN2A and E2F3) score
  Events: 28
High 2-gene signature score
  HR Across ARMCD: 0.73 (0.46-1.16)
Low 2-gene signature score
  HR Across ARMCD: 0.42 (0.26-0.66)

From patent US20230160016A1, “METHODS OF SELECTING A TREATMENT FOR CANCER PATIENTS” (NOVARTIS AG, priority 2017, published 2023)
